Experimental data taken from patent publication US20070043024A1, “Azacyclic compounds as inhibitors of sensory neurone specific channels” (priority 2003, published 2007).
Values joined by “and” are separate entries in the source; they are usually repeats but may differ in a detail not shown here. Equal values may be shown once.

target: T1, human Nav1.8 (hNav1.8) ion channel (Homo sapiens, UniProt Q9Y5Y9); assay: Inhibition of human Nav1.8 stably expressed in SH-SY-5Y cells (membrane potential dye fluorescence assay); assay type: cell-based; conditions: not given
T1 construct: expressed in transfected cells
T1 sequence (Q9Y5Y9 whole entry): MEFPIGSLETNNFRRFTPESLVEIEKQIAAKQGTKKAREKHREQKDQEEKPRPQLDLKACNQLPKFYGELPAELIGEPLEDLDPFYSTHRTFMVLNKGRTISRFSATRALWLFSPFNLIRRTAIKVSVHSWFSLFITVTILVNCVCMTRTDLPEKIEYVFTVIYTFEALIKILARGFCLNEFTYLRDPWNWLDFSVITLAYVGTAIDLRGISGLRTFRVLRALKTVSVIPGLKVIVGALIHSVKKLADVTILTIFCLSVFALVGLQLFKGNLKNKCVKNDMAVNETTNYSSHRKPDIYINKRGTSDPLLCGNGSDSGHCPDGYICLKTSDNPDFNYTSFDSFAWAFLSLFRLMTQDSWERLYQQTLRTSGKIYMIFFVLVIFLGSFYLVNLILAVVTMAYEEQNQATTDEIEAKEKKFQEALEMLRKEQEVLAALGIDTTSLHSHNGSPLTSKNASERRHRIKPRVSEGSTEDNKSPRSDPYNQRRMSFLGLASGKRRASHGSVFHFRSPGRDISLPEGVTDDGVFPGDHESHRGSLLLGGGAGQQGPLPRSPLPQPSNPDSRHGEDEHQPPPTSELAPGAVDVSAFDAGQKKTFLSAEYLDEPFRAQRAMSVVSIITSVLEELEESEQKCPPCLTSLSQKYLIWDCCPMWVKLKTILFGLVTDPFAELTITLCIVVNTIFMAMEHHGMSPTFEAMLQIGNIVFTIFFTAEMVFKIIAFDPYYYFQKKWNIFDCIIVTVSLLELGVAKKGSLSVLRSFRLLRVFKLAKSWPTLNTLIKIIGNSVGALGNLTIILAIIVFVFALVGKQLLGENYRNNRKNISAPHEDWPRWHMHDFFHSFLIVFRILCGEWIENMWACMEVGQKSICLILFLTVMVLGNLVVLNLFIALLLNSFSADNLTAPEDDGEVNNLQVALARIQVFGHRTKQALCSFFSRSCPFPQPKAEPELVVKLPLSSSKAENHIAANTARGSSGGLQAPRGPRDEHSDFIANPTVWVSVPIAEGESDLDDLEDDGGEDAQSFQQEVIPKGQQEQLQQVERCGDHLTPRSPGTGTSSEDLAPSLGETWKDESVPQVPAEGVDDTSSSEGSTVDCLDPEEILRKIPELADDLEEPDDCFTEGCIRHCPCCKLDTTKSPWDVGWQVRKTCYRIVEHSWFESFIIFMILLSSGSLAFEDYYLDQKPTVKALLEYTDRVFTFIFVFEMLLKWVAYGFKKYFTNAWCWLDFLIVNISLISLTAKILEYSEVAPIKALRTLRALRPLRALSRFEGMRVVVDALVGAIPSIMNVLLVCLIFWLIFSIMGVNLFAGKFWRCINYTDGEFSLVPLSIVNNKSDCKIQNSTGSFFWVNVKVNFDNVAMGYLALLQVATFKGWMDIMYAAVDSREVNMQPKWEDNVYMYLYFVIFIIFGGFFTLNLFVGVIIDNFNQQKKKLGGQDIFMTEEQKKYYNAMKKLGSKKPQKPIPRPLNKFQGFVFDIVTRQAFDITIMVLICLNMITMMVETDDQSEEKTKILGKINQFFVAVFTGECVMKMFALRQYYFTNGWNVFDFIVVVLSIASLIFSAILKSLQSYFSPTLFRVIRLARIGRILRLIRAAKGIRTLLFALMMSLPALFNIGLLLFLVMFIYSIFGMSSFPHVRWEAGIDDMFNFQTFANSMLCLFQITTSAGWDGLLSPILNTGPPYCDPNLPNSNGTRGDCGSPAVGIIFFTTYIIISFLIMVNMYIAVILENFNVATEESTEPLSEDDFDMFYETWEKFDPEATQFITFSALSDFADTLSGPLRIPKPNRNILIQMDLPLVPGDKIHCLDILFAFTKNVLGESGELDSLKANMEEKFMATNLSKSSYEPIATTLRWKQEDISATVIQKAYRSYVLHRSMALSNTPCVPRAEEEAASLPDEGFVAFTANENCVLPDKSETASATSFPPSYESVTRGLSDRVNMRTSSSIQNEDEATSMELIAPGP
Description: Inhibition of Human Nav1.8 Stably Expressed in SH-SY-5Y Cells
A SH-SY-5Y neuroblastoma cell line stably expressing the human […] (hNav1.8) ion channel was constructed. This cell line has been used to develop a medium to high throughput assay for determining the ability of test compounds to inhibit membrane depolarisation mediated via the hNav1.8 channel.
SH-SY-5Y hNav1.8 are grown in adherent monolayer culture using 50:50 Ham's F-12/EMEM tissue culture medium supplemented with 15% (v/v) foetal bovine serum; 2 mM L-glutamine, 1% NEAA and 600 μg·ml^−1 Geneticin sulphate. Cells are removed from the tissue culture flask using trypsin/EDTA and re-plated into black walled, clear bottom 96-well assay plates at 50,000 cells·well^−1 24 hours prior to assay.
On the day of assay the cell assay plates are washed to remove cell culture medium using a sodium free assay buffer (145 mM tetramethyl ammonium chloride; 2 mM calcium chloride; 0.8 mM magnesium chloride hexahydrate; 10 mM HEPES; 10 mM glucose; 5 mM potassium chloride, pH 7.4). Fluorescent membrane potential dye solution (FLIPR™ membrane potential dye, Molecular Devices Corporation), containing 10 μM of a pyrethroid to prevent channel inactivation and 250 nM tetrodotoxin (TTX) to reduce interference from TTX-sensitive sodium channels present in the cell line. Test compound, initially dissolved in dimethyl sulfoxide but further diluted in sodium free buffer, is added to achieve the final test concentration range of 100 μM-0.05 μM.
Cell plates are incubated for 30 minutes at room temperature to allow equilibration of dye and test compound. Plates are then transferred to a fluorescence plate reader for fluorescence measurement using an excitation wavelength of 530 nm whilst measuring fluorescence emission at 565 nm. Baseline fluorescence levels are first determined before the addition of a sodium containing buffer (220 mM sodium chloride; 2 mM calcium chloride; 0.8 mM magnesium chloride hexahydrate; […]; 10 mM glucose; 5 mM potassium chloride. pH 7.4) to cause membrane depolarisation in those cells where channel block has not been effected (final sodium concentration=72.5 mM). Membrane depolarisation is registered by an increase in fluorescence emission at 565 nm.
The change in fluorescence seen in each test well upon the addition of sodium containing buffer is calculated relative to the baseline fluorescence for that well. This figure is then used for calculating the IC50 for each test compound.

| Compound | IC50 [nM] |
| --- | --- |
| COc1cccc2c1CN(CC(=O)NCCSC(c1ccccc1)c1ccccc1)CC2 [Compound 96, N-(2-Benzhydrylsulfanyl-ethyl)-2-(8-methoxy-3,4-dihydro-1H-isoquinolin-2-yl)-acetamide] | 1110 |
| COc1cccc2c1CN(CC(=O)NCC[S+]([O-])C(c1ccccc1)c1ccccc1)CC2 (stereo not drawn) [Compound 103, N-[2-(Diphenyl-methanesulfinyl)-ethyl]-2-(8-methoxy-3,4-dihydro-1H-isoquinolin-2-yl)-acetamide] | 2250 |

same assay, conditions: Table 1; SH-SY-5Y hNav1.8 cells, inhibition of membrane depolarisation, FLIPR membrane potential dye, 250 nM TTX, test concentration range 100 μM-0.05 μM; read-out: IC50

| Compound | IC50 [nM] |
| --- | --- |
| 3,4-Dihydro-1H-isoquinoline-2-carbothioic acid benzhydryl-amide [Example 53] | 4060 |

same assay, conditions: Table 2 (compound numbers of the list in the description); SH-SY-5Y hNav1.8 cells, inhibition of membrane depolarisation, FLIPR membrane potential dye, 250 nM TTX, test concentration range 100 μM-0.05 μM; read-out: IC50

| Compound | IC50 |
| --- | --- |
| COc1cccc2c1CN(CC(=O)N1c3ccccc3OCC1c1ccccc1)CC2 (stereo not drawn) [Compound 71, 2-(8-methoxy-3,4-dihydro-1H-isoquinolin-2-yl)-1-(3-phenyl-2,3-dihydro-benzo[1,4]oxazin-4-yl)-ethanone] | 2180 nM |
| COc1cccc2c1CN(CC(=O)N1c3ccccc3Oc3ccccc31)CC2 [Compound 72, 2-(8-methoxy-3,4-dihydro-1H-isoquinolin-2-yl)-1-phenoxazin-10-yl-ethanone] | 490 nM and 1290 nM |
| COc1cccc2c1CN(CC(=O)N1c3ccccc3CCc3ccccc31)CC2 [Compound 73, 1-(10,11-dihydro-dibenzo[b,f]azepin-5-yl)-2-(8-methoxy-3,4-dihydro-1H-isoquinolin-2-yl)-ethanone] | 1280 nM |
| COc1cccc2c1CN(CCCOC=C(c1ccccc1)c1ccccc1)CC2 [Compound 74, 2-[3-(2,2-diphenyl-vinyloxy)-propyl]-8-methoxy-1,2,3,4-tetrahydro-isoquinoline] | 1800 nM |
| COc1ccc2c(c1)CCCN(C(=S)NC(c1ccccc1)c1ccccc1)C2 [Compound 76, 7-methoxy-1,3,4,5-tetrahydro-benzo[c]azepine-2-carbothioic acid benzhydryl-amide] | 14800 nM |
| COc1cccc2c1CN(CC(=O)N(C(C)C)C(C)C)CC2 [Compound 78, N,N-diisopropyl-2-(8-methoxy-3,4-dihydro-1H-isoquinolin-2-yl)-acetamide] | 28500 nM |
| COc1cccc2c1CN(CC(=O)N(Cc1ccccc1)Cc1ccccc1)CC2 [Compound 79, N,N-dibenzyl-2-(8-methoxy-3,4-dihydro-1H-isoquinolin-2-yl)-acetamide] | 1020 nM |
| COc1cccc2c1CN(CC(=O)NCCCC(c1ccccc1)c1ccccc1)CC2 [Compound 81, N-(4,4-diphenyl-butyl)-2-(8-methoxy-3,4-dihydro-1H-isoquinolin-2-yl)-acetamide] | 1400 nM |
| COc1cccc2c1CN(CC(=O)NCCCC(c1ccccc1)c1ccccc1)C2 [Compound 82, N-(4,4-diphenyl-butyl)-2-(4-methoxy-1,3-dihydro-isoindol-2-yl)-acetamide] | 1060 nM |
| COc1ccc2c(c1)CCCN(CC(=O)NC(c1ccccc1)c1ccccc1)C2 [Compound 83, N-benzhydryl-2-(7-methoxy-1,3,4,5-tetrahydro-benzo[c]azepin-2-yl)-acetamide] | 830 nM |
| COc1ccc2c(c1)CCCN(CC(=O)NCC(c1ccccc1)c1ccccc1)C2 [Compound 84, N-(2,2-diphenyl-ethyl)-2-(7-methoxy-1,3,4,5-tetrahydro-benzo[c]azepin-2-yl)-acetamide] | 400 nM |
| COc1ccc2c(c1)CCCN(CC(=O)NCCC(c1ccccc1)c1ccccc1)C2 [Compound 85, N-(3,3-diphenyl-propyl)-2-(7-methoxy-1,3,4,5-tetrahydro-benzo[c]azepin-2-yl)-acetamide] | 1080 nM |
| COc1ccc2c(c1)CCCN(CC(=O)N(Cc1ccccc1)Cc1ccccc1)C2 [Compound 86, N,N-dibenzyl-2-(7-methoxy-1,3,4,5-tetrahydro-benzo[c]azepin-2-yl)-acetamide] | 490 nM |
| COc1cccc2c1CN(CCC(=O)N(Cc1ccccc1)Cc1ccccc1)CC2 [Compound 87, N,N-dibenzyl-3-(8-methoxy-3,4-dihydro-1H-isoquinolin-2-yl)-propionamide] | 490 nM |
| COc1cccc2c1CN(CC(=O)NCCC(c1ccccc1)c1ccccc1)C2 [Compound 88, N-(3,3-diphenyl-propyl)-2-(4-methoxy-1,3-dihydro-isoindol-2-yl)-acetamide] | 2090 nM |
| CCOc1cccc2c1CN(CC(=O)N(Cc1ccccc1)Cc1ccccc1)CC2 [Compound 91, N,N-Dibenzyl-2-(8-ethoxy-3,4-dihydro-1H-isoquinolin-2-yl)-acetamide] | 6980 nM |
| CCOc1cccc2c1CN(CC(=O)NCCCC(c1ccccc1)c1ccccc1)CC2 [Compound 92, N-(4,4-Diphenyl-butyl)-2-(8-ethoxy-3,4-dihydro-1H-isoquinolin-2-yl)-acetamide] | 4820 nM |

| Compound | IC50 |
| --- | --- |
| COc1cccc2c1CN(CC(=O)NCCCOC(c1ccccc1)c1ccccc1)CC2 [Compound 94, N-(3-Benzhydryloxy-propyl)-2-(8-methoxy-3,4-dihydro-1H-isoquinolin-2-yl)-acetamide] | 2840 nM |
| C=CCOc1cccc2c1CN(CC(=O)NCCC(c1ccccc1)c1ccccc1)CC2 [Compound 97, 2-(8-Allyloxy-3,4-dihydro-1H-isoquinolin-2-yl)-N-(3,3-diphenyl-propyl)-acetamide] | 2270 nM |
| Nc1cccc2c1CN(CC(=O)NCC(c1ccccc1)c1ccccc1)C2 [Compound 98, 2-(4-Amino-1,3-dihydro-isoindol-2-yl)-N-(2,2-diphenyl-ethyl)-acetamide] | 6760 nM |
| Nc1cccc2c1CN(CC(=O)NCCC(c1ccccc1)c1ccccc1)C2 [Compound 99, 2-(4-Amino-1,3-dihydro-isoindol-2-yl)-N-(3,3-diphenyl-propyl)-acetamide] | 2430 nM |
| Nc1cccc2c1CN(CC(=O)NCCCC(c1ccccc1)c1ccccc1)C2 [Compound 100, 2-(4-Amino-1,3-dihydro-isoindol-2-yl)-N-(4,4-diphenyl-butyl)-acetamide] | 970 nM |
| Nc1cccc2c1CN(CC(=O)N(Cc1ccccc1)Cc1ccccc1)C2 [Compound 101, 2-(4-Amino-1,3-dihydro-isoindol-2-yl)-N,N-dibenzyl-acetamide] | 4260 nM |
| Nc1cccc2c1CN(CCCC(c1ccc(F)cc1)c1ccc(F)cc1)C2 [Compound 102, 2-[4,4-Bis-(4-fluoro-phenyl)-butyl]-2,3-dihydro-1H-isoindol-4ylamine] | 860 nM |
| COc1cccc2c1CN(CC(=O)NC(C)c1ccccc1)CC2 (stereo not drawn) [Compound 105, 2-(8-Methoxy-3,4-dihydro-1H-isoquinolin-2-yl)-N-(1-phenyl-ethyl)-acetamide] | 15900 nM |
| O=C(CNC(c1ccccc1)c1ccccc1)N1Cc2ccccc2C1 [Compound 107, 2-(Benzhydryl-amino)-1-(1,3-dihydro-isoindol-2-yl)-ethanone] | 2260 nM |
| Nc1cccc2c1CN(CC(=O)NC(c1ccccc1)c1ccccc1)CC2 [Compound 108, 2-(8-Amino-3,4-dihydro-1H-isoquinolin-2-yl)-N-benzhydryl-acetamide] | 3480 nM |
| Nc1cccc2c1CN(CC(=O)NCCCC(c1ccccc1)c1ccccc1)CC2 [Compound 109, 2-(8-Amino-3,4-dihydro-1H-isoquinolin-2-yl)-N-(4,4-diphenyl-butyl)-acetamide] | 1800 nM |
| Nc1cccc2c1CN(CCCC(c1ccc(F)cc1)c1ccc(F)cc1)CC2 [Compound 110, 2-[4,4-Bis-(4-fluoro-phenyl)-butyl]-1,2,3,4-tetrahydro-isoquinolin-8-ylamine] | 480 nM |
| Nc1cccc2c1CN(CC(=O)NCC(c1ccccc1)c1ccccc1)CC2 [Compound 111, 2-(8-Amino-3,4-dihydro-1H-isoquinolin-2-yl)-N-(2,2-diphenyl-ethyl)-acetamide] | 3880 nM |
| CC(=O)Nc1cccc2c1CN(CC(=O)NCCCC(c1ccccc1)c1ccccc1)CC2 [Compound 112, 2-(8-Acetylamino-3,4-dihydro-1H-isoquinolin-2-yl)-N-(4,4-diphenyl-butyl)-acetamide] | 790 nM |
| COc1ccc(C(CCNC(=O)CN2CCc3ccccc3C2)c2ccc(OC)cc2)cc1 [Compound 114, N-[3,3-Bis-(4-methoxy-phenyl)-propyl]-2-(3,4-dihydro-1H-isoquinolin-2-yl)-acetamide] | 10600 nM |
| COc1ccc(C(CCNC(=O)CN2CCc3cccc(OC)c3C2)c2ccc(OC)cc2)cc1 [Compound 115, N-[3,3-Bis-(4-methoxy-phenyl)-propyl]-2-(8-methoxy-3,4-dihydro-1H-isoquinolin-2-yl)-acetamide] | 2350 nM |
